Values quoted from earlier work as cited in patent EP4640072A1, “FLEECE MATERIALS TREATED WITH AN ION-PAIRING AGENT AND ORAL PRODUCTS COMPRISING FLEECE MATERIALS TREATED WITH AN ION-PAIRING AGENT” (Nicoventures Trading Limited, priority 2024, dated 2025).

Assays:
[1] = lipophilicity of the organic acid; values obtained from PubChem or calculated
[2] = not given; remark: listed apart in the source
human buccal tissue = settings: nicotine solution at pH = 6 relative to nicotine solution at pH 8.1; perfusion cell

Molecule	log(P)* [1]	further results
CCCCCCCCCCCC(=O)O [dodecanoic acid]	4.6	
CC(C)[C@@H]1CC[C@@H](C)C[C@H]1OC(=O)CCC(=O)O [monomenthyl succinate]	3	
CC(/C=C/C=C(C)/C=C/C(=O)O)=C\C=C\C=C(C)\C=C\C=C(C)\C=C\C(=O)O (stereo in doubt) [norbixin, (2E,4E,6E,8E,10E,12E,14E,16E,18E)-4,8,13,17-tetramethylicosa-2,4,6,8,10,12,14,16,18-nonaenedioic acid]		solubility: water soluble
ethyl benzoic acid	2.9	
isopropyl benzoic acid	3.5	
COC(=O)/C=C/C(C)=C\C=C\C(C)=C\C=C\C=C(C)\C=C\C=C(C)\C=C\C(=O)O [bixin, (2E,4E,6E,8E,10E,12E,14E,16Z,18E)-20-methoxy-4,8,13,17-tetramethyl-20-oxoicosa-2,4,6,8,10,12,14,16,18-nonaenoic acid]		solubility: soluble in fats and alcohols but insoluble in water; chemical stability (when isolated, converts via isomerization into trans-bixin (β-bixin)): chemically unstable when isolated
CN1CCCC1c1cccnc1 (stereo not shown) [nicotine]		log Kα1 ([2]; pyridine ring nitrogen): 3.41; log Ka2 ([2]; pyrrolidine ring nitrogen): 8.02; factor by which the rate of diffusion across human buccal tissue was reduced (human buccal tissue): ~ 7
O=C(/C=C/c1ccc(O)c(O)c1)O[C@@H](C(=O)O)[C@@H](O)C(=O)O [Caftaric acid]	1.2	
CCCCCCCS(=O)(=O)O [1-heptanesulfonic acid]	2.0	
CCCCCCCC(=O)O [octanoic acid]	3.05	
